Columns and labels:
[1] = test system: PBRM1-p53 interaction; test: Co-immunoprecipitation of Flag-PBRM1 and Myc-p53 (anti-Flag M2) in H1299 cells; assay type: cell-based
Description: (§1) Fig. 1 PBRM1 and p53 display a physical association that is enhanced after DNA damage. a U2OS cells (left) and HEK293T cells (right) were transfected with vector or Flag-PBRM1 and harvested for immunoprecipitation with Flag-M2 beads and elution with 3X Flag peptide. […] Lysates were subjected to immunoprecipitation with Flag-M2 beads. […] Lysates were immunoprecipitated with p53 antibody. The bound PBRM1 and p53 were examined by immunoblots. Source data are provided as a Source Data file.
For anti-Flag immunoprecipitation, cell pellets harvested from one 10 cm culture dish were resuspended in 500 µl hypotonic buffer (10 mM Tris-HCl, pH 8.0, 1.5 mM MgCl2, 10 mM KCl) with protease and phosphatase inhibitors, 2 μM TSA and 10 mM NAM, and samples were incubated on ice for 15 min. Twenty-five microliters of Triton X-100 was added and samples were vortexed for 10 s. After centrifuging for 30 s at 14,000 × g, supernatants were removed and pellets were resuspended in 100 µl hypertonic buffer (20 mM Tris-HCl pH 8.0, 420 mM KCl, 1.5 mM MgCl2, 20% (v/v) glycerol) with protease and phosphatase inhibitors, 2 μM TSA and 10 mM NAM and vortexed for 10 s. Pellets were incubated on ice for 40 min and vortexed for 15 s every 10 min. After centrifuging for 10 min at 14,000 × g, supernatants were collected and diluted with 300 µl EBC buffer (50 mM Tris-HCl (pH 7.5), 120 mM NaCl, 0.5% NP-40) with protease and phosphatase inhibitors, 2 μM TSA and 10 mM NAM. […] Beads were washed four times with EBC buffer and eluted with 3X Flag peptide (F4799, Sigma-Aldrich) overnight at 4 °C. The input and Flag-elution were analyzed by SDS-PAGE and immunoblot.
Supplementary Figure 2. […]
a. Vectors, Flag-PBRM1 or Myc-p53 were transfected into H1299 cells as indicated, and treated with 5 µM nicotinamide or vehicle. Lysates were used for anti-Flag immunoprecipitation and 3X Flag peptide elution. The inputs and eluates were immunoblotted with the indicated antibodies. […]
Flag-PBRM1, wildtype or K382Q mutated Myc-p53 were transfected into H1299 cells with indicated combinations. Lysates were used for anti-Flagimmunoprecipitation followed by Flag peptide elution. […]

[2] = test system: endogenous PBRM1 and p53; test: Endogenous p53 immunoprecipitation, HEK293 cells; assay type: cell-based, human; details: 50 μM, 8 h
Description: as §1

[3] = test system: SLR24 cells; test: Immunoblot of p53 targets, PBRM1-null SLR24 cells; assay type: cell-based; details: 50 μM etoposide
Protocol: The band intensity of indicated protein was measured with Bio-rad Image Lab 4.1, and the relative ratios were calculated over the signal intensity of Vinculin in the corresponding lanes. c–e. Nude mice xenograft analyses were performed with Ren-01 PBRM1 KO cells expressing GFP (left flank) or PBRM1 (right flank). Representative photographs of a mouse (c, top) and tumors (c, bottom). Tumors were excised and weighed, and data are presented as mean ± SEM (d). p-values were calculated using the paired two-tailed Student’s t-test. Tumors were stained for PBRM1 and p21 expression via IHC (e). Scale bar: 200 μm. f–h Nude mice xenograft analyses were performed with Ren-01 PBRM1 KO cells expressing wild-type PBRM1 (left flank) or the BD4* mutant PBRM1 (right flank). Tumors were excised and weighed, and data are presented as mean ± SEM (g). p-values were calculated using the paired two-tailed Student’s t-test. Representative photographs of a mouse (f, top) and tumors (f, bottom). Tumors were stained for PBRM1 and p21 expression via IHC analysis (h). Scale bar: 200 μm. Source data are provided as a Source Data file.
(§2) After washing with ice-cold PBS, cells were scraped on ice and centrifuged at 10,000 × g for 1 min at 4 °C. For immunoblot analysis, cell pellets were lysed in 1% SDS containing a protease inhibitor cocktail followed by sonication with a FB50 sonic dismembrator (Fisher Scientific) at 20% amplitude for 15 s twice. After centrifuging for 10 min at 14,000 × g, the supernatants were combined with 5X SDS loading buffer (5% mercaptoethanol, 0.05% Bromophenol blue, 30% glycerol, 10% SDS, 250 mM Tris-HCl (pH 6.8)), boiled for 5 min and used in SDS-PAGE. After standard western blot procedures, the blots were developed using the ImageQuant LAS 4000 (GE healthcare Life Sciences) or ChemiDoc MP Imaging System (Bio-rad) with HyGLO™ Chemiluminescent HRP Detection Reagent (E2500, Denville Scientific) or Immobilon™ Western Chemiluminescent HRP Substrate (WBKLS0500, Millipore).

[4] = test system: RCC4 cells; details: 100 μM etoposide
Protocol: Lysates were analyzed by immunoblots. c RCC4 cells with or without p53 KO were transfected with vector or Flag-PBRM1 at the indicated amounts. […] Cells were harvested for RT-qPCR (g) or ChIP followed by qPCR (h). […] Representative data is shown in i. Quantification of cell cycle phase is shown in j. Source data are provided as a Source Data file.
as §2, with “Millipore). […]” for “Millipore).”
the indicated times. Lysates were analyzed via immunoblots. b. […]
were analyzed by immunoblots. c. […]
Lysates were analyzed via immunoblots. e. […]
Lysates were analyzed via immunoblots. f, g, h. […]

SMILES: COc1cc([C@@H]2c3cc4c(cc3[C@@H](O[C@@H]3O[C@@H]5CO[C@@H](C)O[C@H]5[C@H](O)[C@H]3O)[C@H]3COC(=O)[C@H]23)OCO4)cc(OC)c1O [Etoposide]
- PBRM1 and exogenous p53 protein levels ([1]; H1299, etoposide 50 μM or bleomycin 10 μg/ml): neither the PBRM1 nor the exogenous p53 levels changed
- PBRM1-p53 interaction ([1]; H1299 co-transfected with PBRM1 and p53, etoposide 50 μM): enhanced
- endogenous PBRM1 precipitated by p53 [2]: increased the amount of endogenous PBRM1 precipitated
- p21, PUMA and MDM2 expression after DNA damage, wild-type vs BD4* PBRM1 or GFP ([3]; SLR24): significantly induced by wild-type but not BD4* mutant PBRM1 or GFP
- p21 or PUMA induction ([3]; SLR24 cells): barely
- p21 and PUMA induction with PBRM1-BD4* ([3]; SLR24 expressing PBRM1-BD4*): failed to induce their expression
- p21 and PUMA induction with PBRM1-wt ([3]; SLR24 expressing PBRM1-wt, all time points): strongly induced
- p21 enhancement by PBRM1 BD4* mutant after p53 activation [4]: failed to enhance p21 expression

Reference: paper PMC6925188, “PBRM1 acts as a p53 lysine-acetylation reader to suppress renal tumor growth” (Nature Communications, 2019)
